This is an account of results in patent publication US10118915B2, “Kappa opioid ligands” (The Scripps Research Institute, priority 2012, dated 2018).

By IC50 is commonly meant the concentration that gives 50% inhibition.

Where only a bound is given, the exact number is not on record here.

kappa opioid receptor (OPRK1), sequence (P41145 whole entry): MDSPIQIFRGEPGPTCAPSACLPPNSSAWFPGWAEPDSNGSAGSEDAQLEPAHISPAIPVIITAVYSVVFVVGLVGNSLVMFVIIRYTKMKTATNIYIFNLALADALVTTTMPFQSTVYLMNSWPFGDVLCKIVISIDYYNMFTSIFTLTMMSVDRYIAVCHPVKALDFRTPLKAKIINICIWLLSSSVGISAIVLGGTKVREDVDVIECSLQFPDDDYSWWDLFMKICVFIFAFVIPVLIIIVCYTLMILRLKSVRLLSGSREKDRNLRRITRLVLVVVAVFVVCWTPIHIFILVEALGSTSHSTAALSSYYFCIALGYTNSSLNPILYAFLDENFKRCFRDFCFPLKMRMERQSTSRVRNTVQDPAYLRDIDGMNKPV

One assay has as its target kappa opioid receptor (OPRK1) (Homo sapiens (Human), UniProt P41145). Put plainly: OPRK1 antagonist assay (b-arrestin-2-TEV protease / b-lactamase reporter cell line, EC80 challenge of U-50488). The format is cell-based.
Conditions: not given
Regarding `COC(=O)c1cc(Br)cnc1NC1CCC(NC2CCCCC2)CC1` (centres unmarked) [C20], the IC50 is over 10 µM. Molecule `Cc1ccc2nc(N3C[C@@H]4[C@H](C3)[C@H]4NC3CCOCC3)c(-c3nc(C)no3)cc2c1` [C88] displayed an IC50 of over 10 µM.

`CC(C)c1noc(-c2cc(Br)cnc2N2CCC(NC3CCCCC3)CC2)n1` [C42] yielded an IC50 of over 10 µM.

Staying with this assay, now noted: antagonist mode vs EC80 U-50488; read-out: IC50.
`CCc1noc(-c2cc3cc(C)ccc3nc2N2CC[C@@H](NC3CCCCC3)[C@H](OC)C2)n1` [compound 335]: the IC50 turned out to be 0.113 µM. For the molecule `COC1CN(c2nc3ccccc3cc2C2=NCC(C)O2)CCC1NC1CCCCC1O` (centres unmarked) [compound 258], the IC50 turned out to be 7.16 µM. As for `Cc1cc(C#N)nc(N2CCC(N[C@@H]3CCCC[C@H]3O)CC2)c1C#N` [C11], the IC50 was over 10 µM. The same measure, in the same setting: under `Cc1nc(-c2cc3cc(F)ccc3nc2N2CCC(NC3CCCCCC3)CC2)no1` [compound 489] stands 0.616 µM; under `Cc1nc(-c2cc3ccc(F)cc3nc2N2CCC(NC3CCOCC3)CC2)no1` [compound 486], 1.07 µM.
